Where two headings read alike, the source gives them in different places.
Tests used:
[1] = tested on: HCV genotype 1a (H77 strain) replicon in HUH-7 cells; assay: HCV replicon luciferase reporter assay, genotype 1a; format: cell-based; conditions: Hepatitis C virus, Huh-7, 72 h, HCV genotype 1a replicon luciferase, 3 days incubation, read-out: LE_1a (EC50, range)
In short: (§1)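 Replicon inhibition for both genotypes was measured as Renilla luciferase signal (EnduRen, 7.5 μM final, 2 h) after 3-day, 37° C exposure of replicon-bearing HUH-7 cells in 4% FCS DMEM, 0.5% DMSO. The 1b construct carries S1179I; the 1a H77 construct carries P1496L and S2204I. Twenty-point, 3-fold dilutions were fitted four-parametrically for EC50, and CC50 was taken from multiplexed Cell Titer-Blue.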

[2] = tested on: HCV genotype 1b (Con1) replicon in HUH-7 cells; assay: HCV replicon luciferase reporter assay, genotype 1b; format: cell-based; conditions: Hepatitis C virus, Huh-7, 72 h, HCV genotype 1b replicon luciferase, 3 days incubation, read-out: LE_1b (EC50, range)
In short: as §1

SMILES | EC50 [1] [nM] | EC50 [2] [nM] | EC50 ([1]; GETYPE1A) [nM] | EC50 ([2]; GETYPE1B) [nM]
C[C@@H]1CC/C=C\[C@@H]2C[C@@]2(C(=O)NS(=O)(=O)C2(CF)CC2)NC(=O)[C@@H]2C[C@@H](Oc3cnc4ccccc4n3)CN2C(=O)[C@@H](NC(=O)OC(C)(C)C)[C@H](C)C1 [Compound 4130, tert-butyl (2R,6S,7R,9R,13aS,14aR,16aS,Z)-14a-(1-(fluoromethyl)cyclopropylsulfonylcarbamoyl)-7,9-dimethyl-5,16-dioxo-2-(quinoxalin-2-yloxy)-1,2,3,5,6,7,8,9,10,11,13a,14,14a,15,16,16a-hexadecahydrocyclopropa[e]pyrrolo[1,2-a][1,4]diazacyclopentadecin-6-ylcarbamate] | 4.82 to 103 | 4.82 to 103 | – | –
COc1ccc2c(O[C@@H]3C[C@H]4C(=O)N[C@]5(C(=O)NS(=O)(=O)C6(C)CC6)C[C@H]5/C=C\CC[C@@H](C)C[C@@H](C)[C@H](NC(=O)OC(C)(C)C)C(=O)N4C3)ncc(N3C[C@@H](C)O[C@@H](C)C3)c2c1 [Compound 4131, tert-butyl (2R,6S,7R,9R,13aS,14aR,16aS,Z)-2-(4-((2S,6R)-2,6-dimethylmorpholino)-6-methoxyisoquinolin-1-yloxy)-7,9-dimethyl-14a-(1-methylcyclopropylsulfonylcarbamoyl)-5,16-dioxo-1,2,3,5,6,7,8,9,10,11,13a,14,14a,15,16,16a-hexadecahydrocyclopropa[e]pyrrolo[1,2-a][1,4]diazacyclopentadecin-6-ylcarbamate] | < 5.46 | < 5.46 | – | –
COc1ccc2c(O[C@@H]3C[C@H]4C(=O)N[C@]5(C(=O)NS(=O)(=O)C6(C)CC6)C[C@H]5/C=C\CC[C@@H](C)C[C@@H](C)[C@H](NC(=O)OC(C)(C)C(F)(F)F)C(=O)N4C3)ncc(N3C[C@@H](C)O[C@@H](C)C3)c2c1 [Compound 4132] | – | – | < 5.46 | < 5.46
C[C@@H]1CC/C=C\[C@@H]2C[C@@]2(C(=O)NS(=O)(=O)C2(C)CC2)NC(=O)[C@@H]2C[C@@H](Oc3ncc(OC(=O)OC(C)(C)C(F)(F)F)c4ccccc34)CN2C(=O)[C@@H](NC(=O)OC(C)(C)C(F)(F)F)[C@H](C)C1 [Compound 4133] | – | – | 4.82 to 103 | < 5.46
C=COc1cnc(O[C@@H]2C[C@H]3C(=O)N[C@]4(C(=O)NS(=O)(=O)C5(C)CC5)C[C@H]4/C=C\CC[C@@H](C)C[C@@H](C)[C@H](NC(=O)OC(C)(C)C)C(=O)N3C2)c2ccccc12 [Compound 4134, tert-butyl (2R,6S,7R,9R,13aS,14aR,16aS,Z)-7,9-dimethyl-14a-(1-methylcyclopropylsulfonylcarbamoyl)-5,16-dioxo-2-(4-(vinyloxy)isoquinolin-1-yloxy)-1,2,3,5,6,7,8,9,10,11,13a,14,14a,15,16,16a-hexadecahydrocyclopropa[e]pyrrolo[1,2-a][1,4]diazacyclopentadecin-6-ylcarbamate] | < 5.46 | < 5.46 | – | –
COc1ccc2c(O[C@@H]3C[C@H]4C(=O)N[C@]5(C(=O)NS(=O)(=O)C6(C)CC6)C[C@H]5/C=C\CC[C@@H](C)C[C@@H](C)[C@H](NC(=O)OC(C)(C)C(F)(F)F)C(=O)N4C3)ncc(N3CCOCC3)c2c1 [Compound 4135] | – | – | < 5.46 | < 5.46
CCOc1cnc(O[C@@H]2C[C@H]3C(=O)N[C@]4(C(=O)NS(=O)(=O)C5(C)CC5)C[C@H]4/C=C\CC[C@@H](C)C[C@@H](C)[C@H](NC(=O)OC(C)(C)C)C(=O)N3C2)c2ccc(OC)cc12 [Compound 4136, tert-butyl (2R,6S,7R,9R,13aS,14aR,16aS,Z)-2-(4-ethoxy-6-methoxyisoquinolin-1-yloxy)-7,9-dimethyl-14a-(1-methylcyclopropylsulfonylcarbamoyl)-5,16-dioxo-1,2,3,5,6,7,8,9,10,11,13a,14,14a,15,16,16a-hexadecahydrocyclopropa[e]pyrrolo[1,2-a][1,4]diazacyclopentadecin-6-ylcarbamate] | < 5.46 | < 5.46 | – | –
COc1ccc2c(O[C@@H]3C[C@H]4C(=O)N[C@]5(C(=O)NS(=O)(=O)C6(C)CC6)C[C@H]5/C=C\CC[C@@H](C)C[C@@H](C)[C@H](NC(=O)OC(C)(C)C)C(=O)N4C3)ncc(N3CCOCC3)c2c1 [Compound 4137, tert-butyl (2R,6S,7R,9R,13aS,14aR,16aS,Z)-2-(6-methoxy-4-morpholinoisoquinolin-1-yloxy)-7,9-dimethyl-14a-(1-methylcyclopropylsulfonylcarbamoyl)-5,16-dioxo-1,2,3,5,6,7,8,9,10,11,13a,14,14a,15,16,16a-hexadecahydrocyclopropa[e]pyrrolo[1,2-a][1,4]diazacyclopentadecin-6-ylcarbamate] | < 5.46 | < 5.46 | – | –
CCOc1cnc(O[C@@H]2C[C@H]3C(=O)N[C@]4(C(=O)NS(=O)(=O)C5(C)CC5)C[C@H]4/C=C\CC[C@@H](C)C[C@@H](C)[C@H](NC(=O)Oc4ccc(F)cc4F)C(=O)N3C2)c2ccccc12 [Compound 4138, 2,4-difluorophenyl (2R,6S,7R,9R,13aS,14aR,16aS,Z)-2-(4-ethoxyisoquinolin-1-yloxy)-7,9-dimethyl-14a-(1-methylcyclopropylsulfonylcarbamoyl)-5,16-dioxo-1,2,3,5,6,7,8,9,10,11,13a,14,14a,15,16,16a-hexadecahydrocyclopropa[e]pyrrolo[1,2-a][1,4]diazacyclopentadecin-6-ylcarbamate] | 4.82 to 103 | 4.82 to 103 | – | –
CCOc1cnc(O[C@@H]2C[C@H]3C(=O)N[C@]4(C(=O)NS(=O)(=O)C5(C)CC5)C[C@H]4/C=C\CC[C@@H](C)C[C@@H](C)[C@H](NC(=O)Oc4ccccc4F)C(=O)N3C2)c2ccccc12 [Compound 4139, 2-fluorophenyl (2R,6S,7R,9R,13aS,14aR,16aS,Z)-2-(4-ethoxyisoquinolin-1-yloxy)-7,9-dimethyl-14a-(1-methylcyclopropylsulfonylcarbamoyl)-5,16-dioxo-1,2,3,5,6,7,8,9,10,11,13a,14,14a,15,16,16a-hexadecahydrocyclopropa[e]pyrrolo[1,2-a][1,4]diazacyclopentadecin-6-ylcarbamate] | 4.82 to 103 | 4.82 to 103 | – | –
CCOc1cnc(O[C@@H]2C[C@H]3C(=O)N[C@]4(C(=O)NS(=O)(=O)C5(C)CC5)C[C@H]4/C=C\CC[C@@H](C)C[C@@H](C)[C@H](NC(=O)Oc4ccccc4)C(=O)N3C2)c2ccccc12 [Compound 4140, phenyl (2R,6S,7R,9R,13aS,14aR,16aS,Z)-2-(4-ethoxyisoquinolin-1-yloxy)-7,9-dimethyl-14a-(1-methylcyclopropylsulfonylcarbamoyl)-5,16-dioxo-1,2,3,5,6,7,8,9,10,11,13a,14,14a,15,16,16a-hexadecahydrocyclopropa[e]pyrrolo[1,2-a][1,4]diazacyclopentadecin-6-ylcarbamate] | < 5.46 | < 5.46 | – | –
COc1ccc2c(O[C@@H]3C[C@H]4C(=O)N[C@]5(C(=O)NS(=O)(=O)C6(C)CC6)C[C@H]5/C=C\CC[C@@H](C)C[C@@H](C)[C@H](NC(=O)C5CCN(C(C)=O)CC5)C(=O)N4C3)ncc(OC)c2c1 [Compound 4141, (2R,6S,7R,9R,13aS,14aR,16aS,Z)-6-(1-acetylpiperidine-4-carboxamido)-2-(4,6-dimethoxyisoquinolin-1-yloxy)-7,9-dimethyl-N-(1-methylcyclopropylsulfonyl)-5,16-dioxo-1,2,3,5,6,7,8,9,10,11,13a,14,14a,15,16,16a-hexadecahydrocyclopropa[e]pyrrolo[1,2-a][1,4]diazacyclopentadecine-14a-carboxamide] | 4.82 to 103 | 4.82 to 103 | – | –
COc1ccc2c(O[C@@H]3C[C@H]4C(=O)N[C@]5(C(=O)NS(=O)(=O)C6(C)CC6)C[C@H]5/C=C\CC[C@@H](C)C[C@@H](C)[C@H](NC(=O)c5ccncc5F)C(=O)N4C3)ncc(OC)c2c1 [Compound 4142, (2R,6S,7R,9R,13aS,14aR,16aS,Z)-2-(4,6-dimethoxyisoquinolin-1-yloxy)-6-(3-fluoroisonicotinamido)-7,9-dimethyl-N-(1-methylcyclopropylsulfonyl)-5,16-dioxo-1,2,3,5,6,7,8,9,10,11,13a,14,14a,15,16,16a-hexadecahydrocyclopropa[e]pyrrolo[1,2-a][1,4]diazacyclopentadecine-14a-carboxamide] | < 5.46 | < 5.46 | – | –
COc1ccc2c(O[C@@H]3C[C@H]4C(=O)N[C@]5(C(=O)NS(=O)(=O)C6(C)CC6)C[C@H]5/C=C\CC[C@@H](C)C[C@@H](C)[C@H](NC(=O)c5ccn(C)c(=O)c5)C(=O)N4C3)ncc(OC)c2c1 [Compound 4143, (2R,6S,7R,9R,13aS,14aR,16aS,Z)-2-(4,6-dimethoxyisoquinolin-1-yloxy)-7,9-dimethyl-6-(1-methyl-2-oxo-1,2-dihydropyridine-4-carboxamido)-N-(1-methylcyclopropylsulfonyl)-5,16-dioxo-1,2,3,5,6,7,8,9,10,11,13a,14,14a,15,16,16a-hexadecahydrocyclopropa[e]pyrrolo[1,2-a][1,4]diazacyclopentadecine-14a-carboxamide] | 4.82 to 103 | 4.82 to 103 | – | –
COc1ccc2c(O[C@@H]3C[C@H]4C(=O)N[C@]5(C(=O)NS(=O)(=O)C6(C)CC6)C[C@H]5/C=C\CC[C@@H](C)C[C@@H](C)[C@H](NC(=O)OC(C)(C)C)C(=O)N4C3)ncnc2c1 [Compound 4144, tert-butyl (2R,6S,7R,9R,13aS,14aR,16aS,Z)-2-(7-methoxyquinazolin-4-yloxy)-7,9-dimethyl-14a-(1-methylcyclopropylsulfonylcarbamoyl)-5,16-dioxo-1,2,3,5,6,7,8,9,10,11,13a,14,14a,15,16,16a-hexadecahydrocyclopropa[e]pyrrolo[1,2-a][1,4]diazacyclopentadecin-6-ylcarbamate] | < 5.46 | < 5.46 | – | –

Source: patent publication US9499550B2 (BRISTOL-MYERS SQUIBB COMPANY, priority 2012, dated 2016)
